Patent publication US9162992B2, “Compounds and compositions for treatment of breathing control disorders or diseases” (GALLEON PHARMACEUTICALS, INC., priority 2010, dated 2015)

Legend:
[1] = system: opioid-induced respiratory depression; assay: Opioid-induced respiratory depression in the monkey; format: in vivo, Macaca fascicularis; details: 0.20 mg/kg/min 5 min, then 0.10 mg/kg/min 10 min
Protocol: Juvenile macaques (four-year-old Macaca fascicularis, 2 to 5 kg, n=13) were used for the study. Animal husbandry was conducted under USDA guidelines and the protocols were approved by the Institutional Animal Care and Use Committee of East Carolina University.
Anesthesia was induced with 5% isoflurane and then maintained with 1.5 to 2% isoflurane (100% O2, 2 L/min). Antebrachial veins were cannulated. Vivometrics Lifeshirts (Ventura, Calif.) were fitted to the animals for monitoring respiratory function by inductance plethysmography. Abdomen and rib cage deflections were calibrated using the Qualitative Diagnostic Calibration (QDC) procedure, and tidal volume was normalized to 15 mL, which represented a typical tidal volume for these animals as previously measured using conventional techniques. Heart rate was monitored continuously by 3-lead ECG.
ETCO2 was measured via a neonatal nasal cannula connected to a microstream CO2 sensor (Cardell monitor, Model 9405). SpO2 and HR were monitored by pulse oximetry using a reflectance probe (Nelcor Max-Fast) positioned on the inner aspect of the upper arm. HR was also determined from the ECG allowing measurement when animal activity compromised the integrity of pulse oximetry signals. BP was measured in anesthetized animals using a cuff positioned on the ankle. […]

rat KCNK3/TASK-1 = target: T1, rat KCNK3/TASK-1 (Rattus norvegicus, UniProt O54912); assay: Thallium flux through rat TASK-1 (KCNK3-CHO cells); format: cell-based; details: Tl+ flux; 3 nM to 30 μM; read-out: rTASK-1 IC50
T1 construct: expressed in transfected cells; host or cells: CHO cells (tetracycline-inducible)
T1 sequence (O54912 whole entry): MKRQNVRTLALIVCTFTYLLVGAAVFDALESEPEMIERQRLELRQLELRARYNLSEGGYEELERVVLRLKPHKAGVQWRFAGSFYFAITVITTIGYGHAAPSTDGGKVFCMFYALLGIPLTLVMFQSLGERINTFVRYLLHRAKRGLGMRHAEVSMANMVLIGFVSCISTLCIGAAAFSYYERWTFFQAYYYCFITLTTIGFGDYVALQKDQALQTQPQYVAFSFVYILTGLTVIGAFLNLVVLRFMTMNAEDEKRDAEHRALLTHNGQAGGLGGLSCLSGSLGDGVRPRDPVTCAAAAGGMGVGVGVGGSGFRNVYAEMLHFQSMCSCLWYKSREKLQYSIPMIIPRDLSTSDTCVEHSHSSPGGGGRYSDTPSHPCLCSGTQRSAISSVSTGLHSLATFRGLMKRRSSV
Protocol: (§1) CHO cells expressing recombinant tetracycline-inducible rat KCNK3/TASK-1 (KCNK3-CHO cells) were plated in poly-D-lysine coated 384-well plates at a density of 6,000 cells/well (50 μl/well of 120,000 cells/mL) and allowed to incubate for 72 hrs in the presence of 5% CO2 and 1 μg/mL tetracycline at 30° C. HEK cells expressing recombinant tetracycline-inducible human KCNK9/TASK-3 (KCNK9-HEK cells) were plated at a density of 15,000 cells per well (50 μl/well, 300,000 cells/mL) and incubated overnight at 37° C. and 5% CO2 in the presence of 1 μg/mL tetracycline.
(§2) Drug plates were generated from 10 mM 100% DMSO mother plates. Compounds were transferred to 384-well drug plates and titrated with sequential 1:3 dilutions in 100% DMSO for a total of 9 dilutions. A dilution plate is made by taking 2.4 μl from the mother plate and adding to […] of assay buffer for a 12% DMSO dilution plate. From this dilution plate, a final daughter plate is generated by taking 1 μA of the dilution plate and adding to 40 μA of assay buffer for a final DMSO concentration of 0.3%. Each compound was evaluated in duplicate and the concentration range evaluated was 3 nM to 30 μM.
(§3) When thallium was added to extracellular solution with a stimulus to open channels, Tl^+ flowed down its concentration gradient into the cells and channel activity was detected with an indicator dye, FluxOR™, that increased in cytosolic fluorescence. The FluxOR™ indicator dye was loaded into cells as a membrane permeable acetoxymethyl ester. On the day of each assay, FluxOR™ assay buffer was made fresh from Hank's Balanced Saline Solution (HBSS) buffered with 20 mM HEPES and pH adjusted to 7.4 with NaOH. Dye loading solution was prepared per manufacturer's instructions, and 25 μl of dye solution applied to each well with a multidropper after plating medium was removed manually from cells. Dye was allowed to load for 90 minutes at room temperature in the dark.
(§4) After the 90 min dye loading incubation and subsequent manual dye removal, 24 μl of the drug daughter plate was transfer to cell plates by a cybi-well system and then incubated at room temperature for 20 minutes to allow for equilibration within wells. Stimulation buffer was prepared from 5× chloride-free buffer, thallium, and potassium sulfate containing 5 times the desired final assay concentration of 10 mM K^+ 2.8 mM Tl^+. Cell plates were then transferred to an FDSS 6000 kinetic imaging plate reader (Hamamatsu). Fluorescence at 525 nm (excitation 488 nm) was measured for 10 seconds at 1 Hz to establish baseline for the entire plate. After baseline was established, 6 μl/well of stimulation buffer was added and fluorescence signal recorded for another 140 seconds.
(§5) From the fluorescence signals in the absence and presence of Galleon compounds, Inhibitory concentration curves were plotted and IC50 values were estimated using a curve fitting algorithm.

human KCNK9/TASK-3 = target: T2, human KCNK9/TASK-3 (Homo sapiens, UniProt Q9NPC2); assay: Thallium flux through human TASK-3 (KCNK9-HEK cells); format: cell-based; details: Tl+ flux; 3 nM to 30 μM; read-out: hTASK-3 IC50
T2 construct: expressed in transfected cells; host or cells: HEK cells (tetracycline-inducible)
T2 sequence (Q9NPC2 whole entry): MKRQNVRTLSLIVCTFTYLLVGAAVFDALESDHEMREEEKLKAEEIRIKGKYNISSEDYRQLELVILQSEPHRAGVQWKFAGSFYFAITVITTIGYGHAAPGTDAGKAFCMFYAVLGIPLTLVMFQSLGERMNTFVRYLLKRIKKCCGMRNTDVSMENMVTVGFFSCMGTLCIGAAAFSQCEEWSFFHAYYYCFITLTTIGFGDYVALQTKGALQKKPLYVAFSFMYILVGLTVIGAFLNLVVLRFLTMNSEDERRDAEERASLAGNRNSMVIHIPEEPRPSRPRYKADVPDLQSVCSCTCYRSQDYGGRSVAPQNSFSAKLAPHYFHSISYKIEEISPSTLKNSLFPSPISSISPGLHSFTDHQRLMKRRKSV
Protocol: as §1, §2, §3, §4, §5

[2] = system: spontaneously breathing rats; assay: Minute ventilation (MV) and cardiovascular parameters in naive rats; format: in vivo, rat; parameters: unit not given here
In short: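 Isoflurane-anesthetized rats, intubated and breathing spontaneously at 1.5% isoflurane, received compounds IV, typically 1 mpk, via femoral vein. Minute ventilation recorded as maximum peak response and change versus baseline. Mean arterial pressure and heart rate were monitored through a femoral arterial catheter.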

[3] = 1 mpk IV, 15% DMA 85% D5W, pH 5-6
[4] = Table 8, 1 mpk, 20% HPβCD, pH 5

Row | SMILES | end-tidal carbon dioxide increases caused by the opioid [1] | minute ventilation [1] | IC50 (rat KCNK3/TASK-1) [µM] | IC50 (human KCNK9/TASK-3) [µM] | MV MPR [2, 3] | MV ΔMV [2, 3] | MV MPR ([2]; 1 mpk IV, 20% HPβCD, pH 4-5) | MV ΔMV ([2]; 1 mpk IV, 20% HPβCD, pH 4-5) | MV DMV [2, 4] | MV MPR [2, 4]
1 | CCCNc1nc(NCCC)nc(N(C)OC)n1.O=S(=O)(O)O [XXXVI, N-(4,6-Bis-n-propylamino-[1,3,5]triazin-2-yl)-N,O-dimethyl-hydroxylamine hydrogen sulfate] | full reversal | increased minute ventilation | 25 | > 30 |  |  |  |  |  | 
2 | CCCNc1nc(NCCC)nc(N(C)OC)n1 [XXXV, N-(4,6-Bis-n-propylamino-[1,3,5]triazin-2-yl)-N,O-dimethyl-hydroxylamine] |  |  |  |  | 207 | 135 | 344 | 210 | 164 | 267
